{"source": "patent US12139487B2", "about": "“Compounds and uses thereof” (Foghorn Therapeutics Inc., priority 2022, dated 2024)", "assay_type_in_all_cases": "cell-based", "key": {"[1]": {"system": "uveal melanoma, hematologic cancer, prostate cancer, breast cancer and Ewing's sarcoma cell lines versus other tested cell lines", "assay": "Growth of uveal melanoma, hematological, prostate, breast cancer and Ewing's sarcoma cell lines with Compound B (day 3 and day 7)", "experimental": "Procedure: Uveal melanoma cell lines (92-1, MP41, MP38, MP46), prostate cancer cell lines (LNCAP), lung cancer cell lines (NCI-H1299), and immortalized embryonic kidney lines (HEK293T) were plated into 96 well plates with growth media (see Table 9). […] Cells were incubated at 37 degrees Celsius for 3 days. After three days of treatment, the media was removed from the cells and 30 microliters of TrypLE (Gibco) was added to cells for 10 minutes. Cells were detached from the plates and resuspended with the addition of 170 microliters of growth media. Cells from two DMSO-treated control wells were counted, and the initial number of cells plated at the start of the experiment, were re-plated into fresh-compound containing plates for an additional four days at 37 degrees Celsius. At day 7, cells were harvested as described above. On day 3 and day 7, relative cell growth was measured by the addition of Cell-titer glo (Promega) and luminescence was measured on an Envision plate reader (Perkin Elmer). […] At the time of cell splitting on days 3 and 7, cells were split into new 96 well plates, and fresh compound was added four hours after re-plating.\nProcedure: All cell lines described above in Example 4 were also tested as described above with Compound B. In addition, the following cell lines were also tested as follows. […]"}, "[2]": {"system": "uveal melanoma cell lines (92-1, MP41, MP38, MP46)", "assay": "Growth of uveal melanoma and non-small cell lung cancer cell lines (3 day, Cell-titer glow)", "conditions": "3 days; 0 to 10 micromolar; FIG. 5", "experimental": "Procedure: Uveal melanoma cell lines (92-1, MP41, MP38, MP46) and Non-small cell lung cancer cells (NCIH1299) were plated into 96 well plates with growth media (see Table 9). BRG1/BRM ATPase inhibitor, compound 67, was dissolved in DMSO and added to the cells in a concentration gradient from 0 to 10 micromolar at the time of plating. Cells were incubated at 37° C. for 3 days. After three days of treatment, cell growth was measured with Cell-titer glow (Promega), and luminescence was read on an Envision plate reader (Perkin Elmer)."}, "[3]": {"system": "uveal melanoma cell lines 92-1 and MP41", "assay": "Comparison of Compound B with clinical PKC and MEK inhibitors in uveal melanoma cell lines (3 day growth)", "conditions": "vs LXS196 and Selumetinib", "experimental": "Procedure: Uveal melanoma cell lines, 92-1 or MP41, were plated in 96 well plates in the presence of growth media (see Table 9). BAF ATPase inhibitor (Compound B), PKC inhibitor (LXS196; MedChemExpress), and MEK inhibitor (Selumetinib; Selleck Chemicals) were dissolved in DMSO and added to the cells in a concentration gradient from 0 to 10 micromolar at the time of plating. Cells were incubated at 37° C. for 3 days. After three days of treatment, cell growth was measured with Cell-titer glow (Promega), and luminescence was read on an Envision plate reader (Perkin Elmer)."}, "[4]": {"system": "parental MP41 and PKCi-resistant MP41 uveal melanoma cells", "assay": "7-day growth inhibition assay in parental and PKC inhibitor-resistant MP41 cells", "experimental": "Procedure: MP41 uveal melanoma cells were made resistant to the PKC inhibitor (LXS196; MedChemExpress), by long-term culture in growth media (see Table 9) containing increasing concentrations of the compound, up to 1 micromolar. After 3 months, sensitivity of the parental MP41 cells and the PKC inhibitor (PKCi)-resistant cells to the PKC inhibitor (LXS196) or the BRG1/BRM ATPase inhibitor (Compound B) was tested in a 7-day growth inhibition assay as described above in Example 6."}}, "data": [{"smiles": "CSCC[C@H](NC(=O)c1ccn(S(C)(=O)=O)c1)C(=O)Nc1nc(-c2cccc(-c3ccncc3)c2)cs1", "note": "[Compound B, (S)-1-(methylsulfonyl)-N-(4-(methylthio)-1-oxo-1-((4-(3-(pyridin-4-yl)phenyl)thiazol-2-yl)amino)butan-2-yl)-1H-pyrrole-3-carboxamide]", "values": [{"measurement": "sensitivity of cell lines to BRG1/BRM inhibition (growth)", "setting": "[1]; breast cancer and Ewing's sarcoma cell lines vs other tested cell lines, FIG. 3", "result": "more sensitive to BRG1/BRM inhibition than the other tested cell lines"}, {"measurement": "duration of growth inhibition", "setting": "[1]; breast cancer and Ewing's sarcoma cell lines, day 7", "result": "maintained through day 7"}, {"measurement": "growth inhibition in uveal melanoma cell lines", "setting": "[2]", "result": "potent growth inhibition"}, {"measurement": "growth inhibition compared with clinical PKC and MEK inhibitors", "setting": "[3]; 3 days, FIG. 6A, 6B", "result": "more potent effects on growth inhibition"}, {"measurement": "onset of growth inhibition compared with clinical PKC and MEK inhibitors", "setting": "[3]", "result": "faster onset of growth inhibition"}, {"measurement": "sensitivity of PKCi-resistant cells relative to parental MP41 cells", "setting": "[4]; FIG. 7B", "result": "more sensitive to Compound B than were the parental MP41 cells"}, {"measurement": "growth inhibition of PKCi-resistant and parental cell lines", "setting": "[4]; both PKCi-resistant and parental MP41, FIG. 7B", "result": "strong growth inhibition"}]}]}
